# Laboratory results published in patent publication US8663715B2, “Compositions, products, therapeutic uses and procedures for the production and/or crystallization of extracts of Encelia canescens LAM (coronilla de fraile)” (Naturaleza Y Fe Ldta, priority 2010, dated 2014).
# Tests used:
# [1] = tested on: CF-1 strain mice; assay: Topical analgesic activity: tail formalin test; type: in vivo; conditions: topical 5% solution; from medians of treated and control group
# Method: The in vivo biological study evaluated the toxicity, oral analgesic activity and topical analgesic activity in the global methanolic extract of Encelia canescens Lam. For these assessments not inbred males CF-1 strain mice were used, whose weight varied between 14 to 20 g and age between 30 to 35 days. In all evaluations, animals were kept in fasting for 12 hours prior to each test with water ad libitum at room temperature.
# Each test was carried out with 10 animals, leaving 2 of them as controls, adding these to a “pool” of animal controls, in total were a group of 16 control animals. At the end of the tests, the animals were sacrificed by cervical dislocation, a painless method.
# For all tests, the pharmacological effect was calculated using the values of the median, as a measure of central tendency of the data and standard error of the median (SEM) as measure of dispersion.
# Results were analyzed by the non-parametric statistical method of Wilcoxon for independent data (Hollander and Wolfe, 1973), considering significant if its p≦0.05.
# This test is intended to determine the analgesic activity via topical of global methanol extract (EMG) of Encella canescens Lam. […] Then, the time of licking which makes the mouse at the site of injection for five minutes, was counted. […] The topical analgesic activity was calculated using the following formula. % D=(Cm/Cc)×100 where: % D: percentage of pain. […]
# [2] = tested on: CF-1 strain mice; assay: Oral analgesia: abdominal twisting induced by acetic acid; type: in vivo; conditions: extract 200 mg/kg in arabic gum, dose of reference drug not given
# [3] = Antioxidant evaluation in system lacase-ABTS; type: biochemical
# Method: In addition, the antioxidant capacity was analyzed using the system lacase-ABTS (2,2-azino-bis-3-ethyl-benzo-thiazolin-6-sulfonic) that allows to establish in a comparative way the oxidation of substrates, denoting of indirect way the antioxidant capacity of a sample (Table 7).
structure (smiles),measurement,setting,value
CC(C)Cc1ccc(C(C)C(=O)O)cc1 (stereo not drawn) [Ibuprofen],% AAT percentage of the topical analgesic activity (% A 1),[1],76.53%
"COc1ccc2cc([C@H](C)C(=O)O)ccc2c1 [Naproxen Sodium, Naproxen sodium]","% E percentage of analgesic effect (with median, final)",[2],70%
"Cc1c(C)c2c(c(C)c1O)CCC(C)(C(=O)O)O2 (stereo not drawn) [Trolox ®, Trolox]",Antioxidant activity IC50,[3],1970 µg/mL
